Results: patent US5045566A, “Novel imidate insecticides” (ICI Americas Inc., priority 1989, dated 1991)

What was measured:
Assay type in all cases: in vivo
[1] = tested on: Cabbage Looper [Trichoplusia ni (Hubner)]; experiment: Cabbage looper leaf dip (CL), 3-5 days; details: percent in solution, second-instar larvae
Method in brief: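 Squash cotyledons dipped in test solution (acetone-water 50-50, ≤0.1%), dried, offered to 5 second-instar larvae; mortality after 3-5 days gives LC50.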

[2] = tested on: Rice water weevil [Lissorhoptrus oryzophilus (Kuschel)]; experiment: Rice water weevil topical (RWW), 48 hours; details: μg of test compound per weevil, female adults
Method: (§1) The compounds in Tables 1 and 2 above were tested for insecticidal activity using the following testing procedures. LC50 values, based on the results of these tests and calculated according to dosage-mortality curves, are expressed in Table 3.
Rice water weevil [Lissorhoptrus oryzophilus (Kuschel)]:
Test compounds were diluted in acetone. Droplets (1 ul) of test solutions were applied to the ventral abdomens of ten female adult weevils. The treated weevils were placed in containers with wet cotton balls and rice foliage. The containers were covered and kept at a temperature of about 25° C. Mortality was recorded after 48 hours. Test concentrations ranged from […] down to that at which 50% mortality occurred. The LC50 values are expressed below in Table 3 under the heading "RWW" in terms of μg of test compound per weevil.

[3] = tested on: Housefly [Musca domestica]; experiment: Housefly contact mortality in dishes (HF), 48 hours; details: μg of test compound per 25 female flies
Method in brief: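 Dose range started at 100 μg per 25 female flies and went downward. Insects (1-2 days old) contacted a dried acetone/peanut-oil deposit in dishes; LC50 values come from dosage-mortality curves at 48 h.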

[4] = tested on: Black Bean Aphid [Aphis fabae (Scop.)]; experiment: Black bean aphid spray test on nasturtium (BBA), 48 hours; details: percent of test compound in sprayed solution
Method in brief: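 LC50, given as percent test compound in the sprayed liquid, was calculated from dosage-mortality curves using concentrations from 0.05% downward. Sprays in 50:50 acetone-water went to runoff on ~5 cm nasturtiums carrying 25-50 aphids of mixed ages, one day after infestation. Deaths were counted 48 h later under greenhouse conditions.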

[5] = tested on: Tobacco Budworm [Heliothis virescens (Fabricius)] eggs; experiment: Tobacco budworm eggs (TBW-E); details: percent in solution; 2-day old eggs
Method in brief: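 Step 1: dip 2-day old egg patches in acetone test solutions (top concentration 0.1%). Step 2: hold in dishes with rearing medium at 78° F. Step 3: record mortality after control hatch and feeding.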

[6] = tested on: Beet Armyworm (Spodoptera exigua); experiment: Beet armyworm leaf dip (BAW), 5 days; details: percent in solution; second-instar larvae; five days
Method: as §1
Beet Armyworm (Spodoptera exigua):
Test compounds were diluted in a 50-50 acetone-water solution. Young leaves of sugar beets (Beta vulgaris) were immersed in the test solutions for 2-3 seconds and placed on a wire screen to dry. The dried leaves were placed in petri dishes containing a moistened filter paper and infested with five second-instar beet armyworm larvae. The dishes were placed in a high humidity chamber. Mortality of the larvae was recorded five days later. Test concentrations ranged from 0.1% downward. The LC-50 values are expressed below in Table 3 under the heading "BAW" in terms of percent of the test compound in solution.

[7] = tested on: Maize weevil [Sitophilus zeamais (Motschulsky)]; experiment: Maize weevil on dipped corn seeds (MW), 48 hours; details: percent in solution, adult weevils
Method in brief: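 LC50, given as percent of compound in dipping solution, comes from dosage-mortality curves over concentrations descending from 0.01%. Four corn seeds soaked 2-3 s in 50:50 acetone:water solution were dried and held with 10 adult weevils, about 25° C, mortality read after 48 h.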

[8] = tested on: Tobacco Budworm [Heliothis virescens (Fabricius)] larvae; experiment: Tobacco budworm larvae, contact (TBW-C), 5 days; details: percent in solution, second-instar larvae
Method in brief: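 Cotton cotyledons dipped 2–3 s in compound in 50-50 acetone-water, dried, then infested with 5 second-instar larvae and held 5 days at high humidity. Mortality scored; LC50 from dosage-mortality curves, expressed as percent compound in solution, concentrations from 0.1% downward.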

[9] = tested on: Aster Leafhopper [Macrosteles fascifrens (Stal)]; experiment: Aster leafhopper on dipped oat seedlings (LH), 48 hours; details: percent in solution, adults/nymphs
Method in brief: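 Three ~10 cm oat seedlings per cup were dipped 2-3 seconds in 50-50 acetone-water compound solutions, dried, and caged with ten adult/nymph leafhoppers. Mortality was counted after 48 hours at concentrations from 0.05% downward. LC50, as percent compound in solution, came from dosage-mortality curves.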

| Compound | LC50 CL [1] | LC50 RWW [2] | LC50 HF [3] | LC50 BBA [4] | LC50 TBW E (eggs) [5] | LC50 BAW [6] | LC50 MW [7] | LC50 TBW C (contact) [8] | LC50 LH [9] |
| --- | --- | --- | --- | --- | --- | --- | --- | --- | --- |
| Fc1ccc(N=C(OCc2cccc(Oc3ccccc3)c2)C2CC2)cc1Cl [Compound 113] | 0.005% | > 2.5 µg | 15 µg |  |  |  |  |  |  |
| CC(C)C(=Nc1ccc(C(C)C)cc1)OCc1cccc(Oc2ccccc2)c1 [Compound 144] | 0.002% |  | 100 µg | 0.003% | 0.05% | > 0.01% | > 0.01% | 0.006% | 0.0006% |
| CC(C)C(=Nc1ccc2c(c1)OCO2)OCc1cccc(Oc2ccc(F)cc2)c1 [Compound 176] | 0.0005% |  | 1.8 µg | 0.0006% | 0.05% | 0.0035% | 0.009% | 0.002% | > 0.05% |
| CC(C)C(=Nc1ccc(F)c(Cl)c1)OCc1cc(Oc2ccc(F)cc2)ccc1F [Compound 230] | 0.0004% | > 2.5 µg | 36 µg | 0.01% | 0.1% |  | 0.038% |  |  |
| CC(C)C(=Nc1ccc(F)c(Br)c1)OCc1cccc(Oc2ccccc2)c1 [Compound 254] | 0.001% | > 2.5 µg | 6 µg | 0.001% | 0.026% |  |  |  |  |
| CC(C)C(=Nc1cccc(C(F)(F)F)c1)OCc1ccc(F)c(Oc2ccc(F)cc2)c1 [Compound 268] | 0.000025% |  | 4 µg | > 0.05% | 0.023% | 0.001% | > 0.01% | 0.0005% | 0.0005% |
| CC(C)C(=Nc1cccc(Cl)c1)OCc1cccc(Oc2ccc(Cl)cc2)c1 [Compound 270] | 0.00025% |  | 12 µg | > 0.05% | > 0.01% | 0.005% | > 0.01% | > 0.0015% | 0.003% |
| CC(C)C(=Nc1cccc(I)c1)OCc1ccc(F)c(Oc2ccc(F)cc2)c1 [Compound 279] | 0.00008% |  | 4 µg | 0.0005% | 0.016% | 0.0025% | > 0.01% | 0.007% | 0.0003% |
| CC(C)(F)C(=Nc1ccc(F)c(Cl)c1)OCc1ccc(F)c(Oc2ccc(F)cc2)c1 [Compound 310] | 0.00006% | > 2.5 µg | 4.5 µg | 0.0006% | 0.015% |  |  |  |  |
| CC(C)C(=Nc1ccc(C(F)(F)F)cc1)OCc1ccc(F)c(Oc2ccc(F)cc2)c1 [Compound 314] | 0.00005% | 0.11 µg | 21 µg |  | 0.012% |  |  |  |  |
| CC(C)C(=Nc1ccc(F)c(Cl)c1)OCc1ccc(F)c(Oc2ccc(F)c(F)c2)c1 [Compound 346] | > 0.1% |  | 7.2 µg | 0.0008% | > 0.1% | > 0.1% | > 0.01% | 0.0002% | 0.05% |
| CC(C)C(=Nc1ccc(OC(F)(F)F)cc1)OCc1ccc(F)c(Oc2ccc(F)c(F)c2)c1 [Compound 347] | 0.000075% |  | 30 µg | 0.0002% | > 0.1% | 0.00075% | > 0.01% | 0.0001% | 0.0002% |
| CC(C)C(=Nc1ccc(F)c(F)c1F)OCc1cccc(Oc2ccc(F)cc2)c1 [Compound 348] | 0.0002% |  | 8 µg | 0.001% | > 0.1% | > 0.1% | > 0.01% | 0.00075% | 0.05% |
